21 molecules from patent US20240059700A1, “NOVEL DIACYLGLYCERIDE O-ACYLTRANSFERASE 2 INHIBITORS” (Merck Sharp & Dohme LLC, priority 2020, published 2024) can be followed below.

Each structure is given as a SMILES string.

human DGAT2 (hDGAT2), sequence (Q96PD7 whole entry): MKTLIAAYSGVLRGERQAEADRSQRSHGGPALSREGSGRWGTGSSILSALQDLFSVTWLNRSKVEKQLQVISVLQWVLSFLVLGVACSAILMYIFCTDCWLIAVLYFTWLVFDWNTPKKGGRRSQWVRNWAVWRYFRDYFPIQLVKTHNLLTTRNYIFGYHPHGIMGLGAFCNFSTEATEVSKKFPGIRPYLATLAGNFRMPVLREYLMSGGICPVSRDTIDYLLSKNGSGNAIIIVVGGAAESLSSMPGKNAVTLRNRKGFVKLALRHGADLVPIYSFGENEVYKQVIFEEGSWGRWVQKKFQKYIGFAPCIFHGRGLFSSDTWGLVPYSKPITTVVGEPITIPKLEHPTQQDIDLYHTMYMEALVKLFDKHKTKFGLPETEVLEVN

The target in the assay is human DGAT2 (hDGAT2) (Homo sapiens (Human), UniProt Q96PD7). Description: DGAT2 Enzymatic Activity Assay. The assay is classed as biochemical. As to conditions: membrane prep of Sf-9 insect cells expressing hDGAT2; 13C18-triolein product by LC/MS/MS. In outline:
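Membranes from Sf-9 cells infected with untagged hDGAT2 baculovirus (8 ng/μL) incubated at rt in 100 mM Tris pH 7.0, 20 mM MgCl2, 5% ethanol with 25 μM diolein and 5 μM 13C oleoyl-CoA. 13C18-triolein product quantified by LC/MS/MS against 13C21-triolein internal standard; IC50 by 4-parameter fit.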
The IC50 is the concentration that inhibits the measured activity by half. A higher IC50 goes with weaker potency. With `CC(C)n1nc(-c2cccc(OCC(F)F)c2)c2ncc(C(=O)NC3(C)CS(=O)(=O)C3)cc21` [Example 94, 3-[3-(2,2-difluoroethoxy)phenyl]-1-isopropyl-N-(3-methyl-1,1-dioxo-thietan-3-yl)pyrazolo[4,3-b]pyridine-6-carboxamide], the 50% inhibitory concentration (IC50) was determined as 7 nM.
As to `CC(C)n1nc(-c2cncc(OC(F)F)c2)c2ncc(C(=O)NC3(C)CS(=O)(=O)C3)cc21` [Example 95, 3-[5-(difluoromethoxy)-3-pyridyl]-1-isopropyl-N-(3-methyl-1,1-dioxo-thietan-3-yl)pyrazolo[4,3-b]pyridine-6-carboxamide], the IC50 was determined as 26 nM.
Turning to `CC(C)n1nc(-c2cccc(OC(F)F)n2)c2ncc(C(=O)NC3(C)CS(=O)(=O)C3)cc21` [Example 96, 3-[6-(difluoromethoxy)-2-pyridyl]-1-isopropyl-N-(3-methyl-1,1-dioxo-thietan-3-yl)pyrazolo[4,3-b]pyridine-6-carboxamide], the IC50 was found to be 5540 nM.
`CC(C)n1nc(-c2cccc(OC3CC3)c2)c2ncc(C(=O)NC3(C)CS(=O)(=O)C3)cc21` [Example 97, 3-[3-(cyclopropoxy)phenyl]-1-isopropyl-N-(3-methyl-1,1-dioxo-thietan-3-yl)pyrazolo[4,3-b]pyridine-6-carboxamide] yielded an IC50 of 0.9 nM.
With `CC(C)n1nc(-c2cc(OC(F)F)ccn2)c2ncc(C(=O)NC3(C)CS(=O)(=O)C3)cc21` [Example 98, 3-[4-(difluoromethoxy)-2-pyridyl]-1-isopropyl-N-(3-methyl-1,1-dioxo-thietan-3-yl)pyrazolo[4,3-b]pyridine-6-carboxamide] the figure was 690 nM.
The same measure for `CC(C)n1nc(-c2cncc(OC(F)F)c2)c2ncc(C(=O)N[C@H]3CCCC[C@@H]3O)cc21` [Example 99, 3-[5-(difluoromethoxy)-3-pyridyl]-N-[(1S,2S)-2-hydroxycyclohexyl]-1-isopropyl-pyrazolo[4,3-b]pyridine-6-carboxamide]: 52 nM.
With `CC(C)n1nc(-c2ccnc(OC(F)F)c2)c2ncc(C(=O)NC3(C)CS(=O)(=O)C3)cc21` [Example 100, 3-[2-(difluoromethoxy)-4-pyridyl]-1-isopropyl-N-(3-methyl-1,1-dioxo-thietan-3-yl)pyrazolo[4,3-b]pyridine-6-carboxamide] the figure was 139 nM; with `CC(C)n1nc(-c2cncc(C3CC3)c2)c2ncc(C(=O)NC3(C)CS(=O)(=O)C3)cc21` [Example 101, 3-(5-cyclopropyl-3-pyridyl)-1-isopropyl-N-(3-methyl-1,1-dioxo-thietan-3-yl)pyrazolo[4,3-b]pyridine-6-carboxamide], 85 nM; with `CC(C)n1nc(-c2cccc(S(C)(=O)=O)c2)c2ncc(C(=O)NC3(C)CS(=O)(=O)C3)cc21` [Example 102, 1-isopropyl-N-(3-methyl-1,1-dioxo-thietan-3-yl)-3-(3-methylsulfonylphenyl)pyrazolo[4,3-b]pyridine-6-carboxamide], 7100 nM.
Molecule `CC(C)n1nc(-c2cccc(F)c2)c2ncc(C(=O)NC3(C)CS(=O)(=O)C3)cc21` [Example 104, 3-(3-fluorophenyl)-1-isopropyl-N-(3-methyl-1,1-dioxo-thietan-3-yl)pyrazolo[4,3-b]pyridine-6-carboxamide] returned an IC50 of 119 nM.
With `CC(C)n1nc(-c2cncc(OC(F)F)c2)c2ncc(C(=O)N[C@H]3CCC[C@H]3O)cc21` [Example 105, 3-(5-(difluoromethoxy)pyridin-3-yl)-N-((1S,2R)-2-hydroxycyclopentyl)-1-isopropyl-1H-pyrazolo[4,3-b]pyridine-6-carboxamide], the IC50 was 78 nM.
The same measure for `CC(C)n1nc(-c2cncc(OC3CC3)c2)c2ncc(C(=O)NC3(C)CS(=O)(=O)C3)cc21` [Example 106, 3-(5-cyclopropoxypyridin-3-yl)-1-isopropyl-N-(3-methyl-1,1-dioxidothietan-3-yl)-1H-pyrazolo[4,3-b]pyridine-6-carboxamide]: 46 nM; for `CC(C)n1nc(-c2cccc(C3(C(F)(F)F)CC3)c2)c2ncc(C(=O)NC3(C)CS(=O)(=O)C3)cc21` [Example 107, 1-isopropyl-N-(3-methyl-1,1-dioxidothietan-3-yl)-3-(3-(1-(trifluoromethyl)cyclopropyl)phenyl)-1H-pyrazolo[4,3-b]pyridine-6-carboxamide]: 2280 nM.
Molecule `CC(C)n1nc(-c2cccc(C#N)c2)c2ncc(C(=O)NC3(C)CS(=O)(=O)C3)cc21` [Example 108, 3-(3-cyanophenyl)-1-isopropyl-N-(3-methyl-1,1-dioxidothietan-3-yl)-1H-pyrazolo[4,3-b]pyridine-6-carboxamide] showed an IC50 of 109 nM.
For `CC(C)n1nc(-c2cc(OC3CCC3)ccc2F)c2ncc(C(=O)NC3(C)CS(=O)(=O)C3)cc21` [Example 109, 3-(5-cyclobutoxy-2-fluorophenyl)-1-isopropyl-N-(3-methyl-1,1-dioxidothietan-3-yl)-1H-pyrazolo[4,3-b]pyridine-6-carboxamide], the IC50 amounted to 11 nM.
On to `CC(C)n1nc(-c2cccc(C3(C#N)CC3)c2)c2ncc(C(=O)NC3(C)CS(=O)(=O)C3)cc21` [Example 110, 3-(3-(1-cyanocyclopropyl)phenyl)-1-isopropyl-N-(3-methyl-1,1-dioxidothietan-3-yl)-1H-pyrazolo[4,3-b]pyridine-6-carboxamide], for which the IC50 turned out to be 1930 nM.
The molecule `CC(C)(O)Cn1nc(-c2cccc(OC(F)F)c2)c2ncc(C(=O)NC3(C)CS(=O)(=O)C3)cc21` [Example 111, 3-(3-(difluoromethoxy)phenyl)-1-(2-hydroxy-2-methylpropyl)-N-(3-methyl-1,1-dioxidothietan-3-yl)-1H-pyrazolo[4,3-b]pyridine-6-carboxamide] had a concentration for half-maximal inhibition (IC50) of 22 nM.
In the case of `CC(C)(O)Cn1nc(-c2cccc(C3CC3)c2)c2ncc(C(=O)NC3(C)CS(=O)(=O)C3)cc21` [Example 112, 3-(3-cyclopropylphenyl)-1-(2-hydroxy-2-methylpropyl)-N-(3-methyl-1,1-dioxidothietan-3-yl)-1H-pyrazolo[4,3-b]pyridine-6-carboxamide], the IC50 was 6 nM.
The same measure for `CC(C)n1nc(-c2cc(OC(F)F)ccc2F)c2ncc(C(=O)NC3(C)CS(=O)(=O)C3)cc21` [Example 113, 3-(5-(difluoromethoxy)-2-fluorophenyl)-1-isopropyl-N-(3-methyl-1,1-dioxidothietan-3-yl)-1H-pyrazolo[4,3-b]pyridine-6-carboxamide]: 1 nM; for `CC(C)n1nc(-c2cncc(OC(F)(F)F)c2)c2ncc(C(=O)NC3(C)CS(=O)(=O)C3)cc21` [Example 114, 1-isopropyl-N-(3-methyl-1,1-dioxidothietan-3-yl)-3-(5-(trifluoromethoxy)pyridin-3-yl)-1H-pyrazolo[4,3-b]pyridine-6-carboxamide]: 20 nM; for `CCOc1ccc(F)c(-c2nn(C(C)C)c3cc(C(=O)NC4(C)CS(=O)(=O)C4)cnc23)c1` [Example 115, 3-(5-ethoxy-2-fluorophenyl)-1-isopropyl-N-(3-methyl-1,1-dioxidothietan-3-yl)-1H-pyrazolo[4,3-b]pyridine-6-carboxamide]: 3.3 nM.
